What was measured:
Details in all cases: 48 h
[1] = test system: NOMO1; experiment: AUC of viability dose-response curve (% viability x log10 dose units); higher = less sensitive
How it was run: (§1)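 Medium-adapted leukemia cells in 1536-well plates, at 500 or 1000 cells/well, were incubated for 48 h at 37°C with library compounds in DMSO at 11 threefold doses from 47 μM to 0.79 nM. CellTiter-Glo One luminescence normalised per plate to DMSO and cell-free wells was fitted with a four-parameter log-logistic model over log10 doses. Area under the curve was integrated from this fit by trapezoidal rule, with curves beyond full viability scaled and failed quality-control curves removed.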

[2] = test system: P12-Ichikawa; experiment: as above
How it was run: as §1

[3] = test system: SEM cells; experiment: as above
How it was run: as §1

[4] = test system: SEM cells; experiment: cell viability relative to DMSO control; higher = less cytotoxic
How it was run: (§2)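 Viability is expressed as a percentage of DMSO wells within each plate, and cell-free wells serve as background. Seeding densities in the 1536-well plates (5 μl) were 500 cells/well for NOMO1 or SEM leukemia cells and 1000 cells/well for P12-Ichikawa. Each line was adapted for at least four passages in each medium. Library compounds in DMSO were pin-dosed at 47 μM to 0.79 nM (11 points, threefold), and CellTiter-Glo One luminescence was read after 48 h at 37°C.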

[5] = test system: P12-Ichikawa; experiment: as above
How it was run: as §2

[6] = test system: NOMO1; experiment: as above
How it was run: as §2

C[S+](=O)([O-])c1ccc([C@@H](O)[C@@H](CO)NC(=O)C(Cl)Cl)cc1
AUC of viability dose-response curve
Details | [1] | [2] | [3]
HPLM + 10% dialyzed FBS | 445 | 456 | 432
RPMI 5 mM glucose + 10% FBS | 476 | 431 | 421
RPMI 5 mM glucose + 10% dialyzed FBS | 455 | 420 | 450

O=C(CN1C(=O)C2(CCCC2)NC[C@H]1c1cc(F)cc(F)c1)Nc1ccc2c(c1)C[C@@]1(C2)C(=O)Nc2ncccc21
cell viability [%], [4]
Details | HPLM + 10% dialyzed FBS | RPMI 5 mM glucose + 10% FBS
0.000781 µM | 109 | 123
0.00234 µM | 104 | 104
0.00702 µM | 119 | 126
0.0211 µM | 139 | 142
0.0632 µM | 125 | 131
0.19 µM | 131 | 136
0.569 µM | 132 | 145
1.71 µM | 140 | 131
5.12 µM | 142 | 135
15.4 µM | 114 | 129
46.1 µM | 104 | 129

AUC of viability dose-response curve
Details | [1] | [2] | [3]
HPLM + 10% dialyzed FBS | 445 | 472 | 461
RPMI 5 mM glucose + 10% FBS | 459 | 466 | 463
RPMI 5 mM glucose + 10% dialyzed FBS | 467 | 471 | 446

O=C1N(c2ccccc2)c2ccccc2C1(Cc1ccncc1)Cc1ccncc1
[4], RPMI 5 mM glucose + 10% FBS
Details | cell viability [%]
0.000781 µM | 84.9
0.00234 µM | 115
0.00702 µM | 133
0.0211 µM | 148
0.0632 µM | 129
0.19 µM | 43.9
0.569 µM | 137
1.71 µM | 94.4
5.12 µM | 88.3
15.4 µM | 108
46.1 µM | 152

AUC of viability dose-response curve
Details | HPLM + 10% dialyzed FBS | RPMI 5 mM glucose + 10% FBS | RPMI 5 mM glucose + 10% dialyzed FBS
[1] | 462 | 473 | 465
[2] | 446 | 437 | 424

COc1ccc(/C=C\c2cc(OC)c(OC)c(OC)c2)cc1NC(=O)[C@H](N)CO
cell viability [%], RPMI 5 mM glucose + 10% FBS
Details | [4] | [5]
0.000781 µM | 104 | 121
0.00234 µM | 118 | 144
0.00702 µM | 115 | 125
0.0211 µM | 58.1 | 50.9
0.0632 µM | 15 | 24.6
0.19 µM | 11.1 | 13.8
0.569 µM | 14.7 | 9.28
1.71 µM | 7.29 | 7.31
5.12 µM | 6.77 | 8.08
15.4 µM | 3.55 | 4.52
46.1 µM | 3.19 | 4.09

AUC of viability dose-response curve
Details | [1] | [2] | [3]
HPLM + 10% dialyzed FBS | 209 | 179 | 190
RPMI 5 mM glucose + 10% FBS | 188 | 157 | 167
RPMI 5 mM glucose + 10% dialyzed FBS | 206 | 202 | 186

NC(=O)N/N=C/c1ccc([N+](=O)[O-])o1
cell viability [%], [4]
Details | HPLM + 10% dialyzed FBS | RPMI 5 mM glucose + 10% FBS
0.000781 µM | 104 | 121
0.00234 µM | 120 | 133
0.00702 µM | 101 | 123
0.0211 µM | 124 | 129
0.0632 µM | 125 | 137
0.19 µM | 122 | 142
0.569 µM | 109 | 116
1.71 µM | 122 | 140
5.12 µM | 112 | 139
15.4 µM | 126 | 161
46.1 µM | 109 | 120

AUC of viability dose-response curve
Details | [1] | [2] | [3]
HPLM + 10% dialyzed FBS | 455 | 470 | 472
RPMI 5 mM glucose + 10% FBS | 441 | 435 | 453
RPMI 5 mM glucose + 10% dialyzed FBS | 434 | 470 | 467

C[C@]1(O)CC(C1)C2=NC(=C3[N]2C=CN=C3N)C4=CC5=C(C=C4)C=CC(=N5)C6=CC=CC=C6 (centres undefined)
cell viability [%]
Details | [4] | [5] | [6]
HPLM + 10% dialyzed FBS, 0.000781 µM | 77.3 | 94 | 95.7
HPLM + 10% dialyzed FBS, 0.00234 µM | 81.7 | 97.3 | 83.7
HPLM + 10% dialyzed FBS, 0.00702 µM | 87.6 | 104 | 104
HPLM + 10% dialyzed FBS, 0.0211 µM | 90.4 | 103 | 89.9
HPLM + 10% dialyzed FBS, 0.0632 µM | 87.1 | 107 | 107
HPLM + 10% dialyzed FBS, 0.19 µM | 67.6 | 97.7 | 72.2
HPLM + 10% dialyzed FBS, 0.569 µM | 76 | 105 | 75.1
HPLM + 10% dialyzed FBS, 1.71 µM | 47.2 | 97.4 | 53.8
HPLM + 10% dialyzed FBS, 5.12 µM | 26.5 | 75.5 | 31.8
HPLM + 10% dialyzed FBS, 15.4 µM | 3.17 | 4.9 | 3.24
HPLM + 10% dialyzed FBS, 46.1 µM | 2.38 | 1.89 | 4.22
RPMI 5 mM glucose + 10% FBS, 0.000781 µM | 95.8 | 102 | 86
RPMI 5 mM glucose + 10% FBS, 0.00234 µM | 96.8 | 101 | 88
RPMI 5 mM glucose + 10% FBS, 0.00702 µM | 105 | 103 | 92.8
RPMI 5 mM glucose + 10% FBS, 0.0211 µM | 103 | 101 | 85.6
RPMI 5 mM glucose + 10% FBS, 0.0632 µM | 105 | 93.5 | 87.4
RPMI 5 mM glucose + 10% FBS, 0.19 µM | 66.4 | 89.6 | 85.3
RPMI 5 mM glucose + 10% FBS, 0.569 µM | 68.8 | 96.4 | 83.5
RPMI 5 mM glucose + 10% FBS, 1.71 µM | 42.2 | 59.5 | 64.3
RPMI 5 mM glucose + 10% FBS, 5.12 µM | 16.6 | 50.3 | 33.7
RPMI 5 mM glucose + 10% FBS, 15.4 µM | 3.06 | 3.05 | 3.26
RPMI 5 mM glucose + 10% FBS, 46.1 µM | 1.58 | 1.49 | 2.26
RPMI 5 mM glucose + 10% dialyzed FBS, 0.000781 µM | 77.7 | 96.1 | 86.2
RPMI 5 mM glucose + 10% dialyzed FBS, 0.00234 µM | 67.5 | 96.5 | 73.9
RPMI 5 mM glucose + 10% dialyzed FBS, 0.00702 µM | 80.7 | 94.5 | 83.8
RPMI 5 mM glucose + 10% dialyzed FBS, 0.0211 µM | 84 | 98.2 | 91.6
RPMI 5 mM glucose + 10% dialyzed FBS, 0.0632 µM | 87.2 | 101 | 90.5
RPMI 5 mM glucose + 10% dialyzed FBS, 0.19 µM | 55.8 | 94.5 | 65.8
RPMI 5 mM glucose + 10% dialyzed FBS, 0.569 µM | 72.5 | 99 | 82.5
RPMI 5 mM glucose + 10% dialyzed FBS, 1.71 µM | 42.7 | 71 | 53.3
RPMI 5 mM glucose + 10% dialyzed FBS, 5.12 µM | 24.3 | 58.2 | 37.7
RPMI 5 mM glucose + 10% dialyzed FBS, 15.4 µM | 3.02 | 4.69 | 4.27
RPMI 5 mM glucose + 10% dialyzed FBS, 46.1 µM | 1.93 | 1.85 | 1.68

AUC of viability dose-response curve
Details | HPLM + 10% dialyzed FBS | RPMI 5 mM glucose + 10% FBS | RPMI 5 mM glucose + 10% dialyzed FBS
[1] | 321 | 319 | 301
[2] | 396 | 358 | 366
